Each molecule was assayed against T1, KRAS G12C 1-169, his-tagged protein, GDP-loaded (Homo sapiens, UniProt P01116, G12C) (assay: Covalent binding (% modification) to KRAS G12C by mass spectrometry). Settings: covalent binding to KRAS G12C after a three minute incubation period.
T1 construct: KRAS G12C 1-169, his-tagged protein, GDP-loaded
With C=CC(=O)N1CCN(c2nc(N3CC(C)(N(C)C)C3)nc3c(F)c(-c4c(O)cccc4F)c(Cl)cc23)C[C@H]1C [Compound 163, 1-((2R)-4-(6-chloro-2-(3-(dimethylamino)-3-methylazetidin-1-yl)-8-fluoro-7-(2-fluoro-6-hydroxyphenyl)quinazolin-4-yl)-2-methyl-piperazin-1-yl) prop-2-en-1-one] the Binding % was “++ (++ indicates binding activity from 50 to 90%)”.
In the case of C=CC(=O)N1CCN(c2nc(N3CC(N(CC)CC)C3)nc3c(F)c(-c4c(O)cccc4F)c(Cl)cc23)C[C@H]1C [Compound 164, 1-((2R)-4-(6-chloro-2-(3-(diethylamino)azetidin-1-yl)-8-fluoro-7-(2-fluoro-6-hydroxyphenyl)quinazolin-4-yl)-2-methyl-piperazin-1-yl) prop-2-en-1-one], the Binding % is reported as “++ (++ indicates binding activity from 50 to 90%)”.
With C=CC(=O)N1C[C@H](C)N(c2nc(N3CC(N)C3)nc3c(F)c(-c4c(C)ccc5[nH]ncc45)c(Cl)cc23)C[C@H]1C [Compound 165, 1-((2R,5S)-4-(2-(3-aminoazetidin-1-yl)-6-chloro-8-fluoro-7-(5-methyl-1H-indazol-4-yl)quinazolin-4-yl)-2,5-dimethyl-piperazin-1-yl) prop-2-en-1-one] the Binding % was “++ (++ indicates binding activity from 50 to 90%)”.
With C=CC(=O)N1CCN(c2nc(N3CC(N(CC)CC)C3)nc3c(F)c(-c4c(C)ccc5[nH]ncc45)c(Cl)cc23)C[C@H]1C [Compound 166, 1-((2R)-4-(6-chloro-2-(3-(diethylamino)azetidin-1-yl)-8-fluoro-7-(5-methyl-1H-indazol-4-yl)quinazolin-4-yl)-2-methyl-piperazin-1-yl) prop-2-en-1-one] the Binding % was “++ (++ indicates binding activity from 50 to 90%)”.
C=CC(=O)N1CCN(c2nc(N3CC(N(CC)CC)C3)nc3c(F)c(-c4c(C)ccc5[nH]ncc45)c(Cl)cc23)[C@@H](C)C1 [Compound 167, 1-((3S)-4-(6-chloro-2-(3-(diethylamino)azetidin-1-yl)-8-fluoro-7-(5-methyl-1H-indazol-4-yl)quinazolin-4-yl)-3-methyl-piperazin-1-yl) prop-2-en-1-one] was tested, and the Binding % was “+++ (+++ indicates binding activity greater than 90%)”.
In the case of C=CC(=O)N1C[C@H](C)N(c2nc(N3CC(N(C)C)C3)nc3c(F)c(-c4ccccc4C(F)(F)F)c(Cl)cc23)C[C@H]1C [Compound 168, 1-((2R,5S)-4-(6-chloro-2-(3-(dimethylamino)azetidin-1-yl)-8-fluoro-7-(2-(trifluoromethyl)phenyl)quinazolin-4-yl)-2,5-dimethyl-piperazin-1-yl) prop-2-en-1-one], the Binding % is reported as “++ (++ indicates binding activity from 50 to 90%)”.
For C=CC(=O)N1C[C@H](C)N(c2nc(OCCN3CC(F)(F)C3)nc3c(F)c(-c4cc(O)cc5ccccc45)c(Cl)cc23)C[C@H]1C [Compound 169, 1-((2R,5S)-4-(6-chloro-2-(2-(3,3-difluoroazetidin-1-yl)ethoxy)-8-fluoro-7-(3-hydroxynaphthalen-1-yl)quinazolin-4-yl)-2,5-dimethyl-piperazin-1-yl) prop-2-en-1-one], the Binding % was “++ (++ indicates binding activity from 50 to 90%)”.
C=CC(=O)N1C[C@H](C)N(c2nc(N3CC4(CCN4C)C3)nc3c(F)c(-c4c(C)ccc5[nH]ncc45)c(Cl)cc23)C[C@H]1C [Compound 170, 1-((2R,5S)-4-(6-chloro-8-fluoro-7-(5-methyl-1H-indazol-4-yl)-2-(1-methyl-1,6-diazaspiro[3.3]heptan-6-yl)quinazolin-4-yl)-2,5-dimethyl-piperazin-1-yl) prop-2-en-1-one] was tested, and the Binding % was “+ (+ indicates binding activity greater than 0% and up to 50%)”.
C=CC(=O)N1CCN(c2nc(N3CC(C)(N(C)C)C3)nc3c(F)c(-c4c(C)ccc5[nH]ncc45)c(Cl)cc23)C[C@H]1C [Compound 171, 1-((2R)-4-(6-chloro-2-(3-(dimethylamino)-3-methylazetidin-1-yl)-8-fluoro-7-(5-methyl-1H-indazol-4-yl)quinazolin-4-yl)-2-methyl-piperazin-1-yl) prop-2-en-1-one] was tested, and the Binding % was “++ (++ indicates binding activity from 50 to 90%)”.
In the case of C=CC(=O)N1C[C@H](C)N(c2nc(OCCCN(C)C)nc3c(F)c(-c4c(O)cccc4F)c(Cl)cc23)C[C@H]1C [Compound 172, 1-((2R,5S)-4-(6-chloro-2-(3-(dimethylamino)propoxy)-8-fluoro-7-(2-fluoro-6-hydroxyphenyl)quinazolin-4-yl)-2,5-dimethyl-piperazin-1-yl) prop-2-en-1-one], the Binding % is reported as “+++ (+++ indicates binding activity greater than 90%)”.
For C=CC(=O)N1C[C@H](C)N(c2nc(N3CC4(CCN(C5CC5)CC4)C3)nc3c(F)c(-c4c(O)cccc4F)c(Cl)cc23)C[C@H]1C [Compound 173, 1-((2R,5S)-4-(6-chloro-2-(7-cyclopropyl-2,7-diazaspiro[3.5]nonan-2-yl)-8-fluoro-7-(2-fluoro-6-hydroxyphenyl)quinazolin-4-yl)-2,5-dimethyl-piperazin-1-yl) prop-2-en-1-one], the Binding % was “++ (++ indicates binding activity from 50 to 90%)”.
For C=CC(=O)N1CCN(c2nc(N3CC(N(CC)CC)C3)nc3c(F)c(-c4c(O)cccc4F)c(Cl)cc23)[C@@H](C)C1 [Compound 174, 1-((3S)-4-(6-chloro-2-(3-(diethylamino)azetidin-1-yl)-8-fluoro-7-(2-fluoro-6-hydroxyphenyl)quinazolin-4-yl)-3-methyl-piperazin-1-yl) prop-2-en-1-one], the Binding % was “+++ (+++ indicates binding activity greater than 90%)”.
With C=CC(=O)N1C[C@H](C)N(c2nc(N3CC4(CCCN4C)C3)nc3c(F)c(-c4c(O)cccc4F)c(Cl)cc23)C[C@H]1C [Compound 177, 1-((2R,5S)-4-(6-chloro-8-fluoro-7-(2-fluoro-6-hydroxyphenyl)-2-(5-methyl-2,5-diazaspiro[3.4]octan-2-yl)quinazolin-4-yl)-2,5-dimethyl-piperazin-1-yl) prop-2-en-1-one] the Binding % was “++ (++ indicates binding activity from 50 to 90%)”.
C=CC(=O)N1C[C@H](C)N(c2nc(N3CC(N(C)C)C3)nc3c(F)c(-c4cc(O)cc5ccccc45)c(C(F)(F)F)cc23)C[C@H]1C [Compound 178, 1-((2R,5S)-4-(2-(3-(dimethylamino)azetidin-1-yl)-8-fluoro-7-(3-hydroxynaphthalen-1-yl)-6-(trifluoromethyl)quinazolin-4-yl)-2,5-dimethyl-piperazin-1-yl) prop-2-en-1-one] was tested, and the Binding % was “+++ (+++ indicates binding activity greater than 90%)”.
For C=CC(=O)N1C[C@H](C)N(c2nc(N3CC(N(C)C)C3)nc3c(F)c(-c4cc(B5OC(C)(C)C(C)(C)O5)cc5ccccc45)c(Cl)cc23)C[C@H]1C [Compound 179, 1-((2R,5S)-4-(6-chloro-2-(3-(dimethylamino)azetidin-1-yl)-8-fluoro-7-(3-(4,4,5,5-tetramethyl-1,3,2-dioxaborolan-2-yl)naphthalen-1-yl)quinazolin-4-yl)-2,5-dimethyl-piperazin-1-yl) prop-2-en-1-one], the Binding % was “+ (+ indicates binding activity greater than 0% and up to 50%)”.
For C=CC(=O)N1C[C@H](C)N(c2nc(N3CC(N(C)C)C3)nc3c(F)c(-c4c(F)cccc4F)c(Cl)cc23)C[C@H]1C [Compound 180, 1-((2R,5S)-4-(6-chloro-7-(2,6-difluorophenyl)-2-(3-(dimethyl-amino)azetidin-1-yl)-8-fluoro-quinazolin-4-yl)-2,5-dimethyl-piperazin-1-yl) prop-2-en-1-one], the Binding % was “+ (+ indicates binding activity greater than 0% and up to 50%)”.
In the case of C=CC(=O)N1C[C@H](C)N(c2nc(OCCCN(C)C)nc3c(F)c(-c4cc(O)cc5ccccc45)c(Cl)cc23)C[C@H]1C [Compound 181, 1-((2R,5S)-4-(6-chloro-2-(3-(dimethylamino)propoxy)-8-fluoro-7-(3-hydroxy-naphthalen-1-yl)quinazolin-4-yl)-2,5-dimethyl-piperazin-1-yl) prop-2-en-1-one], the Binding % is reported as “+++ (+++ indicates binding activity greater than 90%)”.
With C=CC(=O)N1C[C@H](C)N(c2nc(N3CC4(CCCN(C5CC5)C4)C3)nc3c(F)c(-c4c(C)ccc5[nH]ncc45)c(Cl)cc23)C[C@H]1C [Compound 182, 1-((2R,5S)-4-(6-chloro-2-(6-cyclopropyl-2,6-diazaspiro[3.5]nonan-2-yl)-8-fluoro-7-(5-methyl-1H-indazol-4-yl)quinazolin-4-yl)-2,5-dimethyl-piperazin-1-yl) prop-2-en-1-one] the Binding % was “+ (+ indicates binding activity greater than 0% and up to 50%)”.
With C=CC(=O)N1C[C@H](C)N(c2nc(N3CC4(CCCN(C)C4)C3)nc3c(F)c(-c4c(O)cccc4F)c(Cl)cc23)C[C@H]1C [Compound 183, 1-((2R,5S)-4-(6-chloro-8-fluoro-7-(2-fluoro-6-hydroxyphenyl)-2-(6-methyl-2,6-diazaspiro[3.5]nonan-2-yl)quinazolin-4-yl)-2,5-dimethyl-piperazin-1-yl) prop-2-en-1-one] the Binding % was “++ (++ indicates binding activity from 50 to 90%)”.
In the case of C=CC(=O)N1C[C@H](C)N(c2nc(N3CC4(CCN4C)C3)nc3c(F)c(-c4c(O)cccc4F)c(Cl)cc23)C[C@H]1C [Compound 184, 1-((2R,5S)-4-(6-chloro-8-fluoro-7-(2-fluoro-6-hydroxyphenyl)-2-(1-methyl-1,6-diazaspiro[3.3]heptan-6-yl)quinazolin-4-yl)-2,5-dimethyl-piperazin-1-yl) prop-2-en-1-one], the Binding % is reported as “++ (++ indicates binding activity from 50 to 90%)”.
C=CC(=O)N1C[C@H](C)N(c2nc(N3CC(N(C)C)C3)nc3c(F)c(-c4c(F)cccc4B4OC(C)(C)C(C)(C)O4)c(Cl)cc23)C[C@H]1C [Compound 185, 1-((2R,5S)-4-(6-chloro-2-(3-(dimethylamino)azetidin-1-yl)-8-fluoro-7-(2-fluoro-6-(4,4,5,5-tetramethyl-1,3,2-dioxaborolan-2-yl)phenyl)quinazolin-4-yl)-2,5-dimethyl-piperazin-1-yl) prop-2-en-1-one] was tested, and the Binding % was “+ (+ indicates binding activity greater than 0% and up to 50%)”.
Also: test concentration or dose not given here.
